Values joined by “and” are separate entries in the source; they are usually repeats but may differ in a detail not shown here. Equal entries are not always repeated. Inconclusive results and toxic doses are left out.
Test system: L1210 leukemia ip in BDF1 mice, survival T/C
Test: NCI In Vivo Anticancer Drug Screen. Data for tumor model L1210 Leukemia (intraperitoneal) in B6D2F1 (BDF1) mice
Details: higher = longer survival
How it was run: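 Value reflects the ratio of survival in compound-treated mice to survival in vehicle-treated controls, with both groups carrying the same transplanted tumor.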

[1] = endpoint: mean survival time, dose: 100.0 mg/kg/injection, schedule: Q01DX001 (ip), vehicle: carboxymethylcellulose (CMC)
[2] = endpoint: mean survival time, dose: 200.0 mg/kg/injection, schedule: Q01DX001 (ip), vehicle: carboxymethylcellulose (CMC)
[3] = endpoint: mean survival time, dose: 25.0 mg/kg/injection, schedule: Q01DX009 (ip), vehicle: saline with Tween-80
[4] = endpoint: mean survival time, dose: 50.0 mg/kg/injection, schedule: Q01DX009 (ip), vehicle: saline with Tween-80
[5] = endpoint: mean survival time, dose: 100.0 mg/kg/injection, schedule: Q01DX009 (ip), vehicle: saline with Tween-80

## CNC(=O)c1cc(NC(=O)c2ccc(C(=O)Nc3cc(C(=O)NC)cc(C4=NCCN4)c3)cc2)cc(C2=NCCN2)c1
endpoint: mean survival time, dose: 16.0 mg/kg/injection, schedule: Q01DX015 (ip), vehicle: methylcellulose (MC)
  T/C: 90 % of control
endpoint: mean survival time, dose: 25.0 mg/kg/injection, schedule: Q01DX009 (ip), vehicle: carboxymethylcellulose (CMC)
  T/C: 96 % of control
endpoint: mean survival time, dose: 31.0 mg/kg/injection, schedule: Q01DX015 (ip), vehicle: methylcellulose (MC)
  T/C: 94 % of control
endpoint: mean survival time, dose: 50.0 mg/kg/injection, schedule: Q01DX009 (ip), vehicle: carboxymethylcellulose (CMC)
  T/C: 96 % of control
endpoint: mean survival time, dose: 62.0 mg/kg/injection, schedule: Q01DX015 (ip), vehicle: methylcellulose (MC)
  T/C: 94 % of control and 120 % of control
[1]
  T/C: 96 % of control
endpoint: mean survival time, dose: 100.0 mg/kg/injection, schedule: Q01DX009 (ip), vehicle: carboxymethylcellulose (CMC)
  T/C: 113 % of control
endpoint: mean survival time, dose: 125.0 mg/kg/injection, schedule: Q01DX015 (ip), vehicle: methylcellulose (MC)
  T/C: 94 % of control and 102 % of control
[2]
  T/C: 91 % of control
endpoint: mean survival time, dose: 200.0 mg/kg/injection, schedule: Q01DX009 (ip), vehicle: carboxymethylcellulose (CMC)
  T/C: 98 % of control
endpoint: mean survival time, dose: 500.0 mg/kg/injection, schedule: Q01DX015 (ip), vehicle: methylcellulose (MC)
  T/C: 106 % of control

## COc1cc([N+](=O)[O-])ccc1S(=O)(=O)F
endpoint: mean survival time, dose: 100.0 mg/kg/injection, schedule: Q01DX009 (ip), vehicle: gum acacia
  T/C: 95 % of control
endpoint: mean survival time, dose: 200.0 mg/kg/injection, schedule: Q01DX009 (ip), vehicle: gum acacia
  T/C: 98 % of control
endpoint: mean survival time, dose: 400.0 mg/kg/injection, schedule: Q01DX009 (ip), vehicle: gum acacia
  T/C: 90 % of control

## Clc1nc(SC2=NCCN2)c2[nH]cnc2n1
endpoint: mean survival time, dose: 10.0 mg/kg/injection, schedule: Q01DX009 (ip), vehicle: saline with Tween-80
  T/C: 108 % of control
endpoint: mean survival time, dose: 12.5 mg/kg/injection, schedule: Q01DX009 (ip), vehicle: saline with Tween-80
  T/C: 102 % of control
endpoint: mean survival time, dose: 12.5 mg/kg/injection, schedule: Q04DX003 (ip), vehicle: saline with Tween-80
  T/C: 106 % of control
endpoint: mean survival time, dose: 20.0 mg/kg/injection, schedule: Q01DX009 (ip), vehicle: saline with Tween-80
  T/C: 101 % of control
[3]
  T/C: 104 % of control
endpoint: mean survival time, dose: 25.0 mg/kg/injection, schedule: Q04DX003 (ip), vehicle: saline with Tween-80
  T/C: 106 % of control
endpoint: mean survival time, dose: 40.0 mg/kg/injection, schedule: Q01DX009 (ip), vehicle: saline with Tween-80
  T/C: 100 % of control
[4]
  T/C: 113 % of control
endpoint: mean survival time, dose: 50.0 mg/kg/injection, schedule: Q04DX003 (ip), vehicle: saline with Tween-80
  T/C: 107 % of control

## Nc1ncc(Br)c2ccccc12
endpoint: mean survival time, dose: 100.0 mg/kg/injection, schedule: Q04DX003 (ip), vehicle: saline with Tween-80
  T/C: 96 % of control
endpoint: mean survival time, dose: 200.0 mg/kg/injection, schedule: Q04DX003 (ip), vehicle: saline with Tween-80
  T/C: 103 % of control

## CC/C(=C(\CC)c1ccc(OCC(=O)N2CC2)cc1)c1ccc(OCC(=O)N2CC2)cc1
endpoint: mean survival time, dose: 2.5 mg/kg/injection, schedule: Q04DX002 (ip), vehicle: saline
  T/C: 101 % of control
endpoint: mean survival time, dose: 5.0 mg/kg/injection, schedule: Q04DX002 (ip), vehicle: saline
  T/C: 101 % of control
endpoint: mean survival time, dose: 10.0 mg/kg/injection, schedule: Q04DX002 (ip), vehicle: saline
  T/C: 105 % of control

## O=c1oc(-c2ccccc2Cl)nc2cc(Cl)ccc12
[4]
  T/C: 96 % of control
[5]
  T/C: 100 % of control

## CCCCC(CC)COC(=O)CC(CC(=O)OCC(CC)CCCC)C(=O)OCC(CC)CCCC (configuration not stated)
endpoint: mean survival time, dose: 50.0 mg/kg/injection, schedule: Q01DX009 (ip), vehicle: saline
  T/C: 111 % of control
endpoint: mean survival time, dose: 100.0 mg/kg/injection, schedule: Q01DX009 (ip), vehicle: saline
  T/C: 97 % of control
endpoint: mean survival time, dose: 200.0 mg/kg/injection, schedule: Q01DX009 (ip), vehicle: saline
  T/C: 92 % of control

## [O-][n+]1ccccc1SSc1cccc[n+]1[O-]
endpoint: mean survival time, dose: 6.25 mg/kg/injection, schedule: Q01DX009 (ip), vehicle: Klucel (hydroxypropylcellulose) (HPC)
  T/C: 99 % of control
endpoint: mean survival time, dose: 12.5 mg/kg/injection, schedule: Q01DX009 (ip), vehicle: Klucel (hydroxypropylcellulose) (HPC)
  T/C: 96 % of control and 98 % of control
endpoint: mean survival time, dose: 25.0 mg/kg/injection, schedule: Q01DX009 (ip), vehicle: Klucel (hydroxypropylcellulose) (HPC)
  T/C: 88 % of control

## C[C@H](CCC[C@H](C)OS(=O)(=O)c1ccccc1)OS(=O)(=O)c1ccccc1
[3]
  T/C: 104 % of control and 112 % of control
[4]
  T/C: 107 % of control and 112 % of control (2×)
[5]
  T/C: 109 % of control
endpoint: mean survival time, dose: 200.0 mg/kg/injection, schedule: Q01DX009 (ip), vehicle: saline with Tween-80
  T/C: 112 % of control (2×) and 117 % of control

## Nc1cc2nc3ccccc3sc-2cc1=O
endpoint: median survival time, dose: 50.0 mg/kg/injection, schedule: Q01DX001 (ip), vehicle: Klucel (hydroxypropylcellulose) (HPC)
  T/C: 100 % of control
endpoint: median survival time, dose: 50.0 mg/kg/injection, schedule: Q01DX001 (oral), vehicle: Klucel (hydroxypropylcellulose) (HPC)
  T/C: 105 % of control
endpoint: median survival time, dose: 50.0 mg/kg/injection, schedule: Q01DX009 (ip), vehicle: Klucel (hydroxypropylcellulose) (HPC)
  T/C: 102 % of control
endpoint: median survival time, dose: 50.0 mg/kg/injection, schedule: Q01DX009 (oral), vehicle: Klucel (hydroxypropylcellulose) (HPC)
  T/C: 114 % of control
endpoint: median survival time, dose: 50.0 mg/kg/injection, schedule: Q04DX003 (ip), vehicle: Klucel (hydroxypropylcellulose) (HPC)
  T/C: 101 % of control
endpoint: median survival time, dose: 100.0 mg/kg/injection, schedule: Q01DX001 (ip), vehicle: Klucel (hydroxypropylcellulose) (HPC)
  T/C: 93 % of control
endpoint: median survival time, dose: 100.0 mg/kg/injection, schedule: Q01DX001 (oral), vehicle: Klucel (hydroxypropylcellulose) (HPC)
  T/C: 105 % of control
endpoint: median survival time, dose: 100.0 mg/kg/injection, schedule: Q01DX009 (ip), vehicle: Klucel (hydroxypropylcellulose) (HPC)
  T/C: 97 % of control
endpoint: median survival time, dose: 100.0 mg/kg/injection, schedule: Q01DX009 (oral), vehicle: Klucel (hydroxypropylcellulose) (HPC)
  T/C: 114 % of control
endpoint: median survival time, dose: 100.0 mg/kg/injection, schedule: Q04DX003 (ip), vehicle: Klucel (hydroxypropylcellulose) (HPC)
  T/C: 94 % of control
endpoint: median survival time, dose: 200.0 mg/kg/injection, schedule: Q01DX001 (ip), vehicle: Klucel (hydroxypropylcellulose) (HPC)
  T/C: 96 % of control
endpoint: median survival time, dose: 200.0 mg/kg/injection, schedule: Q01DX001 (oral), vehicle: Klucel (hydroxypropylcellulose) (HPC)
  T/C: 106 % of control
endpoint: median survival time, dose: 200.0 mg/kg/injection, schedule: Q01DX009 (ip), vehicle: Klucel (hydroxypropylcellulose) (HPC)
  T/C: 102 % of control
endpoint: median survival time, dose: 200.0 mg/kg/injection, schedule: Q01DX009 (oral), vehicle: Klucel (hydroxypropylcellulose) (HPC)
  T/C: 113 % of control
endpoint: median survival time, dose: 200.0 mg/kg/injection, schedule: Q04DX003 (ip), vehicle: Klucel (hydroxypropylcellulose) (HPC)
  T/C: 101 % of control
endpoint: median survival time, dose: 400.0 mg/kg/injection, schedule: Q01DX001 (ip), vehicle: Klucel (hydroxypropylcellulose) (HPC)
  T/C: 96 % of control
endpoint: median survival time, dose: 400.0 mg/kg/injection, schedule: Q01DX001 (oral), vehicle: Klucel (hydroxypropylcellulose) (HPC)
  T/C: 110 % of control
endpoint: median survival time, dose: 400.0 mg/kg/injection, schedule: Q01DX009 (ip), vehicle: Klucel (hydroxypropylcellulose) (HPC)
  T/C: 97 % of control
endpoint: median survival time, dose: 400.0 mg/kg/injection, schedule: Q01DX009 (oral), vehicle: Klucel (hydroxypropylcellulose) (HPC)
  T/C: 112 % of control
endpoint: median survival time, dose: 400.0 mg/kg/injection, schedule: Q04DX003 (ip), vehicle: Klucel (hydroxypropylcellulose) (HPC)
  T/C: 94 % of control

## O=C(CCCC(=O)N/N=C/c1ccc(O)c(O)c1)N/N=C\c1ccc(O)c(O)c1
endpoint: mean survival time, dose: 50.0 mg/kg/injection, schedule: Q01DX001 (ip), vehicle: other
  T/C: 104 % of control
endpoint: mean survival time, dose: 100.0 mg/kg/injection, schedule: Q01DX001 (ip), vehicle: other
  T/C: 93 % of control
endpoint: mean survival time, dose: 200.0 mg/kg/injection, schedule: Q01DX001 (ip), vehicle: other
  T/C: 98 % of control
endpoint: mean survival time, dose: 400.0 mg/kg/injection, schedule: Q01DX001 (ip), vehicle: other
  T/C: 91 % of control

## CCCCCCOP(=O)(N1CC1)N1CC1
endpoint: mean survival time, dose: 0.62 mg/kg/injection, schedule: Q01DX001 (ip), vehicle: saline
  T/C: 102 % of control
endpoint: mean survival time, dose: 1.25 mg/kg/injection, schedule: Q01DX001 (ip), vehicle: saline
  T/C: 100 % of control
endpoint: mean survival time, dose: 2.5 mg/kg/injection, schedule: Q01DX001 (ip), vehicle: saline
  T/C: 103 % of control
endpoint: mean survival time, dose: 5.0 mg/kg/injection, schedule: Q01DX001 (ip), vehicle: saline
  T/C: 103 % of control
endpoint: mean survival time, dose: 10.0 mg/kg/injection, schedule: Q01DX001 (ip), vehicle: saline
  T/C: 152 % of control
endpoint: mean survival time, dose: 20.0 mg/kg/injection, schedule: Q01DX001 (ip), vehicle: saline
  T/C: 201 % of control
endpoint: mean survival time, dose: 40.0 mg/kg/injection, schedule: Q01DX001 (ip), vehicle: saline
  T/C: 287 % of control
endpoint: mean survival time, dose: 75.0 mg/kg/injection, schedule: Q01DX001 (ip), vehicle: saline
  T/C: 267 % of control
endpoint: mean survival time, dose: 150.0 mg/kg/injection, schedule: Q01DX001 (ip), vehicle: saline
  T/C: 247 % of control

## CC(=O)OCC1OC(Oc2ncc(C)c(=O)[nH]2)C(Nc2ccc([N+](=O)[O-])cc2[N+](=O)[O-])C(OC(C)=O)C1OC(C)=O (configuration not stated)
endpoint: mean survival time, dose: 50.0 mg/kg/injection, schedule: Q01DX001 (ip), vehicle: carboxymethylcellulose (CMC)
  T/C: 100 % of control
[1]
  T/C: 97 % of control
[2]
  T/C: 103 % of control
endpoint: mean survival time, dose: 400.0 mg/kg/injection, schedule: Q01DX001 (ip), vehicle: carboxymethylcellulose (CMC)
  T/C: 92 % of control

— PubChem BioAssay AID248 (DTP/NCI, 2004)
